# Measured values as given in US20230091225A1, “Bifunctional chimeric heterocyclic compounds for targeted degradation of androgen receptors and use thereof” (HINOVA PHARMACEUTICALS INC., priority 2019, published 2023).
# Read-outs that look alike come from different tables or passages of the source.
# Target: T1, androgen receptor (AR) (Homo sapiens, UniProt P10275)
# T1 sequence (P10275 1-920): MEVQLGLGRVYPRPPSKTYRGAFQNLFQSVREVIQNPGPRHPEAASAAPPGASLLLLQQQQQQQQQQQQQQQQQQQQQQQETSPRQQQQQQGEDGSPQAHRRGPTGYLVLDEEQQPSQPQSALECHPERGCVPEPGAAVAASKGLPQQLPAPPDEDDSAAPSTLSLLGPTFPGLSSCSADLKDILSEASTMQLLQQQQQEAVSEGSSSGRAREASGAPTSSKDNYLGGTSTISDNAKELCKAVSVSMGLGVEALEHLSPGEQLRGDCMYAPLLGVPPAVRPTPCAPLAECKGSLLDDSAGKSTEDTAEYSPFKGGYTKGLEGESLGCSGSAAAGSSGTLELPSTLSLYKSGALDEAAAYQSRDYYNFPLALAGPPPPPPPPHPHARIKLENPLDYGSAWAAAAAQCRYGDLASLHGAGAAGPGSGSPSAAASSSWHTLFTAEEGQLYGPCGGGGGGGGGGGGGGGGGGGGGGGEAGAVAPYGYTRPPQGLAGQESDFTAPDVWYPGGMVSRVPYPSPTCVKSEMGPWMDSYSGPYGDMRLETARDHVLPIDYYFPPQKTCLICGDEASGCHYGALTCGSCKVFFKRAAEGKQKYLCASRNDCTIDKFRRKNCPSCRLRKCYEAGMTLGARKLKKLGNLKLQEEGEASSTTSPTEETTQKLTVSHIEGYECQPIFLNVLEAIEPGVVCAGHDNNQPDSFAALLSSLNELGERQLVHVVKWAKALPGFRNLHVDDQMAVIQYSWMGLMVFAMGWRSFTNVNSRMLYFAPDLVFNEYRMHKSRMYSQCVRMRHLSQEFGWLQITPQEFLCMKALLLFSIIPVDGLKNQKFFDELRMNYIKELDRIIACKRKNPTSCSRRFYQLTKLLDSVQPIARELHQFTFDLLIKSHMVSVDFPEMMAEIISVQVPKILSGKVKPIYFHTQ
# Test: Degradation of androgen receptor (AR) protein in VCaP cells by ELISA
# Assay type: cell-based
# Details: for Dmax: VCaP
# [1] = AR degradation, VCaP cells, 16 h, ELISA, Table 3-2, read-out: DC50
# [2] = AR degradation, VCaP cells, 16 h, ELISA, Table 3-2, read-out: Dmax (%)
SMILES,DC50 [1] [µM],Dmax [2] [%],Dmax [%],also measured
CC1(C)[C@H](Oc2ccc(C#N)c(Br)c2)C(C)(C)[C@H]1N1Cc2nc(C#C[C@H]3CC[C@H](N4CCN(c5ccc6c(c5)C(=O)N(C5CCC(=O)NC5=O)C6=O)CC4)CC3)ccc2C1=O (some centres unmarked) [Compound 398],0.01 to 0.1,> 80,,
COc1cc(O[C@H]2C(C)(C)[C@H](N3Cc4nc(C#C[C@H]5CC[C@H](N6CCN(c7cc8c(cc7F)C(=O)N(C7CCC(=O)NC7=O)C8=O)CC6)CC5)ccc4C3=O)C2(C)C)ccc1C#N (some centres unmarked) [Compound 399],< 0.01,> 80,,
Cc1cc(O[C@H]2C(C)(C)[C@H](N3Cc4nc(C#C[C@H]5CC[C@H](N6CCN(c7cc8c(cc7F)C(=O)N(C7CCC(=O)NC7=O)C8=O)CC6)CC5)ccc4C3=O)C2(C)C)ccc1C#N (some centres unmarked) [Compound 401],0.01 to 0.1,,> 80,
Cc1cc(O[C@H]2C(C)(C)[C@H](N3Cc4nc(C#C[C@H]5CC[C@H](N6CCN(c7ccc8c(c7)C(=O)N(C7CCC(=O)NC7=O)C8=O)CC6)CC5)ccc4C3=O)C2(C)C)ccc1C#N (some centres unmarked) [Compound 402],,,> 80,DC50: < 0.01 µM
N#Cc1ccc(O[C@H]2CC[C@H](NC(=O)c3nc(N4CCC(CN5CCC6(CC5)CN(c5ccc7c(c5)C(=O)N(C5CCC(=O)NC5=O)C7=O)C6)CC4)no3)CC2)cc1Cl (some centres unmarked) [Compound 413],,,> 80,DC50: < 0.01 µM
N#Cc1ccc(O[C@H]2CC[C@H](NC(=O)c3nnc(N4CCC(CN5CCC6(CC5)CN(c5ccc7c(c5)C(=O)N(C5CCC(=O)NC5=O)C7=O)C6)CC4)o3)CC2)cc1Cl (some centres unmarked) [Compound 414],< 0.01,> 80,,
N#Cc1ccc(O[C@H]2CC[C@H](NC(=O)c3noc(N4CCC(CN5CCC6(CC5)CN(c5ccc7c(c5)C(=O)N(C5CCC(=O)NC5=O)C7=O)C6)CC4)n3)CC2)cc1Cl (some centres unmarked) [Compound 415],,,> 80,DC50: < 0.01 µM
"N#Cc1ccc(O[C@H]2CC[C@H](NC(=O)c3ccn([C@H]4CC[C@H](CN5CCC6(CC5)CN(c5ccc7c(c5)C(=O)N(C5CCC(=O)NC5=O)C7=O)C6)CC4)n3)CC2)cc1Cl (stereo partly drawn) [Compound 416, N-((1r,4R)-4-(3-chloro-4-cyanophenoxy)cyclohexyl)-1-((1r,4R)-4-((2-(2-(2,6-dioxopiperidin-3-yl)-1,3-dioxoisoindolin-5-yl)-2,7-diazaspiro[3.5]nonan-7-yl)methyl)cyclohexyl)-1H-pyrazole-3-formamide]",< 0.01,> 80,,
N#Cc1ccc(O[C@H]2CC[C@H](NC(=O)c3cnc(N4CCC(CN5CCC6(CC5)CN(c5cc7c(cc5F)C(=O)N(C5CCC(=O)NC5=O)C7)C6)CC4)nn3)CC2)cc1Cl (some centres unmarked) [Compound 417],< 0.01,> 80,,
N#Cc1ccc(O[C@H]2CC[C@H](NC(=O)c3cnc(N4CCC(CN5CCC6(CC5)CN(c5ccc7c(c5)C(=O)N(C5CCC(=O)NC5=O)C7=O)C6)CC4)nn3)CC2)cc1Br (some centres unmarked) [Compound 419],,,,Dmax (%): ++++ (key: A: >80%; B: 79%-50%; C: 49%-25%; D: <25%); DC50 (read-out: DC50): < 0.01 µM
"N#Cc1ccc(O[C@H]2CC[C@H](NC(=O)c3cnc(N4CCC(CN5CCC6(CC5)CN(c5ccc7c(c5)C(=O)N(C5CCC(=O)NC5=O)C7=O)C6)CC4)nn3)CC2)cc1C(F)(F)F (some centres unmarked) [Compound 420, N-((1r,4r)-4-(4-cyano-3-trifluoromethyl-phenoxy)cyclohexyl)-3-(4-((2-(2-(2,6-dioxopiperidin-3-yl)-1,3-dioxoisoindolin-5-yl)-2,7-diazaspiro[3.5]nonane-7-yl)methyl)piperidin-1-yl)-1,2,4-triazine-6-formamide]",< 0.01,> 80,,
[2H]C([2H])([2H])Oc1cc(O[C@H]2C(C)(C)[C@H](N3Cc4nc(C#C[C@H]5CC[C@H](N6CCN(c7ccc8c(c7)C(=O)N(C7CCC(=O)NC7=O)C8=O)CC6)CC5)ccc4C3=O)C2(C)C)ccc1C#N (some centres unmarked) [Compound 429],< 0.01,> 80,,
CCOc1cc(O[C@H]2C(C)(C)[C@H](N3Cc4nc(C#C[C@H]5CC[C@H](N6CCN(c7ccc8c(c7)C(=O)N(C7CCC(=O)NC7=O)C8=O)CC6)CC5)ccc4C3=O)C2(C)C)ccc1C#N (some centres unmarked) [Compound 430],0.1 to 0.3,60 to 80,,
